Article PMC6934184, “Selective DNA-PKcs inhibition extends the therapeutic index of localized radiotherapy and chemotherapy” (The Journal of Clinical Investigation, 2019)

Target: T1, PTK2B (FAK2) (Homo sapiens, UniProt Q14289)
T1 construct: purchased Thermo Fisher Scientific (Life Technologies) SelectScreen
Experiment: SelectScreen Z'LYTE
Type: biochemical
Summary of the method: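 Percent values come from Thermo SelectScreen profiling of NU5455, combining activity and binding assays. CSF1R was run in Z'LYTE format at Km app ATP, and CAMK1 in Adapta format with ATP listed at 10.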

T1 sequence (Q14289 whole entry): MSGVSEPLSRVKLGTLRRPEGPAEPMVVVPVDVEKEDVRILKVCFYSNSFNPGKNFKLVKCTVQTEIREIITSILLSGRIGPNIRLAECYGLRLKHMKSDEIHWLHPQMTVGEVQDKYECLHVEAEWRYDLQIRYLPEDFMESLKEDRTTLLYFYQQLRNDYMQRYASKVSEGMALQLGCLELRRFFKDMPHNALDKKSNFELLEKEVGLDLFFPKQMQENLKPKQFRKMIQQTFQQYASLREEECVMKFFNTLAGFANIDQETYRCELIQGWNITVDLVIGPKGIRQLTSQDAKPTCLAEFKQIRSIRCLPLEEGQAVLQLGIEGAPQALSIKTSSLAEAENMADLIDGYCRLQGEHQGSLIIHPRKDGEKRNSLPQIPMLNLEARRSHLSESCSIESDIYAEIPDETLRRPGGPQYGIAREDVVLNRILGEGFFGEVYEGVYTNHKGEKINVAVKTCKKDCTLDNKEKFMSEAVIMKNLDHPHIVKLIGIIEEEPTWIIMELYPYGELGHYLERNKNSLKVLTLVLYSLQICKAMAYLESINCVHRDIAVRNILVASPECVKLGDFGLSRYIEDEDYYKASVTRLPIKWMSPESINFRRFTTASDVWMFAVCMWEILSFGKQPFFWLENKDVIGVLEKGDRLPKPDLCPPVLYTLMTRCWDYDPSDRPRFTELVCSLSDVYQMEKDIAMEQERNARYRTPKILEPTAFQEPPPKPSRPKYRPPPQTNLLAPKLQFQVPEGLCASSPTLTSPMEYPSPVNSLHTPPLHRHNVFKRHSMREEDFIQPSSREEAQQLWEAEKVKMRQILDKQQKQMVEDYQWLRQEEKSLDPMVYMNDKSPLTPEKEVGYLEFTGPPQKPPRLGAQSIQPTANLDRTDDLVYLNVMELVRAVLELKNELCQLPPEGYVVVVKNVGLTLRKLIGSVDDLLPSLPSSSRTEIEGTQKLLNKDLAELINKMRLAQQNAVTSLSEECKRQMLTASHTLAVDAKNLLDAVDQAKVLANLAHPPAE

SMILES: CN(C(=O)CN1CCOCC1)c1ccc2sc3c(-c4cccc5c(=O)cc(N6CC7CCC(C6)O7)oc45)cccc3c2c1 [NU5455]
- inhibition at 1 µM: 4.2%
